The numbers were not newly measured in patent publication US12268699B2, “Transdermal delivery of tetrahydrocannabinol” (Pike Therapeutics Inc., priority 2019, dated 2025), which cites them from elsewhere.

Like-named read-outs stand apart in the source and are kept apart here.

The subject of one data set is CB2 receptor over CB1. The conditions noted are these: given as ×, -fold or times.
In data set [1] the test system is complete Freund's adjuvant-induced monoarthritic knee join mode. The conditions noted are these: transdermal.
The conditions of data set [2]: in 96 hrs. with 6% Brij O20.
Another data set has as its target CB2 (Homo sapiens, UniProt P34972).
A further data set deals with CB1 (Homo sapiens, UniProt P21554).
Chain of CB1 (P21554 whole entry, species assumed): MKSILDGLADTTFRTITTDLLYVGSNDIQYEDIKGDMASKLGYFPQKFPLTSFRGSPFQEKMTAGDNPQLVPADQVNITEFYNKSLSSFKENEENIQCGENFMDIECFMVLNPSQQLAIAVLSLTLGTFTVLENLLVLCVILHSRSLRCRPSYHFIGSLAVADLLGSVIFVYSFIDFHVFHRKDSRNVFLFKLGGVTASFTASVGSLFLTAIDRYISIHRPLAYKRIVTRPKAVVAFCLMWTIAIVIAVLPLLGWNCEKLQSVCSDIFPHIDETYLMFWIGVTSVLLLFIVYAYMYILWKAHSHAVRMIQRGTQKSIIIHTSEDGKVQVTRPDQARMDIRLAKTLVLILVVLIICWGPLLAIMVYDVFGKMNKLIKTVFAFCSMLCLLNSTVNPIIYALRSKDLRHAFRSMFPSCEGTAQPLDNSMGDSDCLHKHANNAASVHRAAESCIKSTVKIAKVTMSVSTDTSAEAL

Chain of CB2 (P34972 whole entry, species assumed): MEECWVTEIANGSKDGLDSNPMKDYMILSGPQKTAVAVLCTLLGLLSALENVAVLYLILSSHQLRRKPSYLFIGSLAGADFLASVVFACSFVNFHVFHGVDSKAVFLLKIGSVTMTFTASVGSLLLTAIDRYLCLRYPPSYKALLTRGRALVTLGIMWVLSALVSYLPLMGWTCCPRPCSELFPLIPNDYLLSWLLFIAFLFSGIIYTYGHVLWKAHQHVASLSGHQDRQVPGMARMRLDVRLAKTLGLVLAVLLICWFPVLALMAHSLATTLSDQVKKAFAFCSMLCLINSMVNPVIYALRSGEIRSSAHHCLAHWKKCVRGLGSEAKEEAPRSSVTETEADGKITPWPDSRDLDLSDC

For the molecule `CCCn1c(C)c(C(=O)c2ccc(C)c3ccccc23)c2ccccc21` [JWH-148], in the data set with CB2 receptor over CB1, the “selectivity for CB2 over CB1” value was “more than 8”.

On to `C=C(C)[C@@H]1CCC(C)=C[C@H]1c1c(O)cc(CCCCC)cc1O` [CBD, 2-[(1R,6R)-6-isopropenyl-3-methylcyclohex-2-en-1-yl]-5-pentylbenzene-1,3-diol], for which the knee-joint swelling result in data set [1] (dose of 6.2 mg/day) is recorded as “reduce knee-joint swelling”; in data set [1] (dose of 62 mg/day), “failed to yield any additional improvement”.

Take `CCCCCc1cc(O)c2c(c1)OC(C)(C)[C@@H]1CCC(C)=C[C@@H]21` [naturally derived delta-9-THC, (−)-(6aR,10aR)-6,6,9-Trimethyl-3-pentyl-6a,7,8,10a-tetrahydro-6H-benzo[c]chromen-1-ol]: the skin permeability in data set [2] is 20 µg.

On to `CCCn1cc(C(=O)c2ccc(C)c3ccccc23)c2ccccc21` [JWH-120], for which the “selectivity for CB2 over CB1” value in the data set on CB2 receptor over CB1 was 173.

As to `CCCCCCC(C)(C)c1cc(OC)c2c(c1)OC(C)(C)C1CCC(O)CC21` (stereo not drawn) [JWH-350, 11-nor-1-methoxy-3-(1′,1′-dimethylheptyl)-9α-hydroxyhexahydrocannabinol], the “selectivity for CB2 over CB1” value with CB2 receptor over CB1 is on record as 33.

For `CCCCCn1cc(C(=O)c2cccc3cccc(Br)c23)c2ccccc21` [JWH-424], the Ki (commonly a measure of affinity in units of concentration, obtained from inhibition or displacement) at CB2 was 5.44 nM; at CB1 it was 20.9 nM.

`CCCCCCC(C)(C)c1cc(O)c2c(c1)oc(=O)c1ccc(OC)cc12` [AM-1710]: the “selectivity for CB2 over CB1” value in the data set with CB2 receptor over CB1 is listed as 54.

For `CCCCCn1cc(C(=O)c2ccc(Cl)c3ccccc23)c2ccccc21` [JWH-398], the inhibition constant Ki at CB2 was 2.8 nM; on CB1 it was 2.3 nM.
